Measured values from patent US11517617B2, “Methods and compositions for preventing influenza infection” (THE UNIVERSITY OF MELBOURNE, priority 2017, dated 2022).
Several values for one entry are separate records, joined by “and”; a condition that tells them apart may be missing. Identical values can stand only once. No end group written: not given here.

Experiments:
[1] = system: tetramer^+CD8^+ T cells; type: cell-based, human
[2] = target: HLA-A*02:01 (Homo sapiens, UniProt P04439, D140Y/D185E/D98H/E176V/E277Q/G131W/G231S/I119V/I121R/I166T/I218V/L300P/L318F/N151K/N90K/P208A/P217A/Q86G/Q94H/R138H/R169H/T345S); assay: Thermal stability of pHLA-A*02:01 complex (Tm); type: binding
[3] = system: CD8^+ T cells; type: cell-based, human
[4] = system: CD8^+ T cells; assay: In vitro screening and validation in HLA-A*02:01-expressing human PBMCs, CD8^+ T cell lines, IFNγ/TNF ICS; type: cell-based; conditions: for CD8^+ T cell response hierarchy of individual peptides: HLA-A*0201^+ donors, dissection of pools into individual peptides; for CD8^+ T cell response, median / donors with response: T cell lines towards individual peptides, n=6
Text: As a next step, the IBV-specific CD8^+ T cell responses towards the 67 LC/MS-identified IBV-peptides in HLA-A*02:01-expressing individuals were dissected. CD8^+ T cell lines specific for each of the 6 peptide pools were established, and then re-stimulated cells with the cognate pool in an IFNγ/TNF ICS assay (FIG. 2f).
To validate these responses independently of the peptide pools, CD8^+ T cell lines were established towards individual immunogenic peptides (FIG. 2i). […] Thus, these thorough in vivo and in vitro analyses identified 5 novel peptides recognized by CD8^+ T cells in complex with the HLA-A*02:01 molecule, with BHA543-551 being immunodominant amongst the peptides tested, in both mice and humans.
Peripheral blood mononuclear cells (PBMC) from healthy A2:01+ donors were cultured in the presence of antigens (10 μM peptide) for 10 days in the presence of IL-2 (10 U/ml). On day 10 PBMCs were stimulated with peptides (1 μM) for 5 hours in the presence of BFA. Cells were surface stained for CD3 and CD8 and intracellularly stained for IFNγ and TNF using the BD cytofix/cytoperm kit according to the manufacturer's instructions (BD Biosciences).
Any pools with positive ICS responses were then dissected to their individual peptides.

[5] = system: CD8^+ T cells
[6] = system: tetramer^+ CD8^+ T cells; assay: Tetramer staining of IAV- or IBV-specific CD8^+ T cell lines established in vitro from healthy adult PBMC; type: cell-based, human; conditions: for tetramer^+ of CD8^+ T cells, median: n=11
Text: Conversely, the universal A2/PB1413 epitope within the IBV-specific T cell lines was immunodominant (0.3%; detected in 8/11 donors) over the IBV-specific A2/BHA543 (0.11%; detected in 10/11 donors) and A2/BNS1266 epitopes (0.01%) (FIG. 4c).

[7] = system: CD8^+ T cells; type: cell-based, human; remark: listed apart in the source
[8] = system: CD8^+ T cells; parameters: species or system HHD-A2 mice; conditions: mouse, in vivo
[9] = system: human lung CD8^+ T cells; assay: Ex vivo tetramer detection in human lung samples from deceased organ donors; type: cell-based; conditions: for epitope-specific CD8^+ T cells detected within human lung CD8^+ T cells: n=3 lung donors
Text: As human memory CD8^+ T cells also reside outside the circulation, a rare set of human lung samples from deceased organ donors (n=3) were used to assess the presence of universal A2/PB1413^+CD8^+ T cells at the site of infection. CD8^+ T cells specific for A2/M158 and A2/PB1413, but not A2/BHA543 were detected within human lung CD8^+ T cells (2/3 donors for either specificity, FIG. 3f). […] Although based on a limited number of donors, this analysis indicates the presence of universal A2/PB1413^+ tissue-resident memory CD8^+ T cell pools in the human lung.

[10] = system: CD8^+ T cells; assay: Recall responses in HHD-A2 mice primed with B/Malaysia and challenged with B/Phuket; type: in vivo
Text: To further verify the immunogenicity of these epitopes in recall responses, HHD-A2 mice were primed i.n. with B/Malaysia, infected with the heterologous strain B/Phuket 6 weeks later and then assessed CD8^+ T cells against the main epitopes A2/BHA543-551 and A2/BNS1266-274 in the spleen on d8 after challenge.

[11] = system: tetramer^+ CD8^+ T cells; type: cell-based, human
[12] = system: memory CD8^+ T cells within PBMCs; type: cell-based, human
[13] = system: CD8+ T Lymphocytes; type: cell-based, human
[14] = system: CD8+ T cells; parameters: species or system transgenic HLA-A24 mice; conditions: mouse, in vivo
[15] = system: CD8^+ T cells; parameters: species or system A24 mice; conditions: mouse
[16] = system: A2/PB1413-specific CD8^+ T cells; type: cell-based, human; conditions: n=24
[17] = system: A2/PB1413^+CD8^+ T cells; type: cell-based, human
[18] = system: IBV; parameters: species or system HHD-A2 mice; conditions: mouse, in vivo
[19] = IAV-specific CD8^+ T cell lines

## GLDNHTILL [HA543-551, GLDNHTILL]
[1]
  d14 frequency lower than universal A2/PB1413^+CD8^+ T cells: 5 fold
[2]
  Tm (temperature required to unfold 50% of the protein) of pHLA-A*02:01 complex: ~72 °C
[3]
  polyfunctionality: inferior
[4]; 10 days culture with 10 μM peptide and IL-2, re-stimulation 1 μM
  ICS responses in healthy A2:01+ donors: detected across multiple donors
[4]
  CD8^+ T cell response hierarchy of individual peptides: immunodominant epitope
  CD8^+ T cell response, median: 7.35 % of CD8^+ T cells
  donors with response: 6/6
[5]
  EC50: 0.78 nM
[6]; IBV-specific T cell lines
  donors with detected tetramer^+ cells: 10/11
  tetramer^+ of CD8^+ T cells, median: 0.11%
[7]
  additional low avidity CD8^+ T cells detected by Q115E staining: could be detected
[8]
  CD8+ T cell responses (IFNγ and TNF production): CD8+ T cell responses were targeted
  CD8^+ T cell response, mean: 5 % of CD8^+ T cells
  CD8^+ T cell responses at the site of infection: targeted
[9]
  epitope-specific CD8^+ T cells detected within human lung CD8^+ T cells: not
[10]; primary infection
  polyfunctional IFNγ^+TNF^+IL-2^+ CD8^+ T cells: 0.14 % of CD8^+ T cells
[10]; secondary infection, p=0.013
  polyfunctional IFNγ^+TNF^+IL-2^+ CD8^+ T cells: 2.14 % of CD8^+ T cells
[10]; spleen d8 after B/Phuket challenge, not statistically significant
  number of secondary IFNγ^+TNF^+ CD8^+ T cells in the spleen versus primary infection: ~27 fold
[11]
  CD38^+/Ki-67^+ expression of tetramer-positive CD8^+ T cells: increase
  increase in numbers of epitope-specific CD8^+ T cells versus healthy donors: 2.2 fold
  individuals with detected epitope-specific CD8^+ T cells: 75%

## VLSQFGQEHRL (Influenza B virus) [NS1264-274]
[4]
  CD8^+ T cell response hierarchy of individual peptides: Subdominant responses
  CD8^+ T cell response, median: 0.025 % of CD8^+ T cells
  donors with response: single donor
[8]
  CD8+ T cell responses (IFNγ and TNF production): detected
  CD8^+ T cell responses at the site of infection: targeted

## FEDLRVLSA (Influenza A virus) [NP338-345]
[12]
  memory CD8^+ T cell responses (IFN-γ production after peptide re-stimulation): robust memory CD8^+ T cell responses

## YYSTAASSL (Influenza B virus) [HA552-560]
[13]
  CD8+ T cell responses (IFNγ) after single peptide re-stimulation: immunogenic response

## YFSPIRVTF (Influenza B virus) [NP165-173]
[14]
  immunogenicity (induction of IFNγ production in CD8+ T cells after peptide re-stimulation): immunogenic

## TYQWIIRNW (Influenza A virus) [PB2549-557]
[15]
  in vivo CD8^+ T cell responses: targeted

## RYGFVANF (Influenza A virus) [PB1498-505]
[15]
  in vivo CD8^+ T cell responses: targeted

## NMLSTVLGV [PB1413-421, NMLSTVLGV]
[1]
  increase from baseline to d14: 19 fold
[2]
  Tm (temperature required to unfold 50% of the protein) of pHLA-A*02:01 complex: ~72 °C
[16]
  healthy donors with detectable levels of epitope-specific CD8^+ T cells: 80%
[12]
  memory CD8^+ T cell responses (IFN-γ production after peptide re-stimulation): robust memory CD8^+ T cell responses
[5]
  EC50: 0.89 nM
[6]; [19]
  donors with detected tetramer^+ cells: 10/11
  tetramer^+ of CD8^+ T cells, median: 0.12%
[6]; IBV-specific T cell lines
  donors with detected tetramer^+ cells: 8/11
  tetramer^+ of CD8^+ T cells, median: 0.3%
[17]
  IFN-γ production towards peptide: minimal
  magnitude of A2/PB1413-specific CD8^+ T cells: markedly increased
[18]
  epitope-specific CD8^+ T cells after immunization: could not be detected
[7]
  additional low avidity CD8^+ T cells detected by Q115E staining: no additional
[9]; human lung
  phenotype of the majority of lung tetramer^+ CD8^+ T cells: tissue-resident memory CD69^+CD103^+CD45RO^+ phenotype
[9]
  epitope-specific CD8^+ T cells detected within human lung CD8^+ T cells: 2/3
[11]
  CD38^+/Ki-67^+ expression of tetramer-positive CD8^+ T cells: increase
  increase in frequency of epitope-specific CD8^+ T cells in blood versus healthy donors: 6 fold
  increase in numbers of epitope-specific CD8^+ T cells versus healthy donors: 2.6 fold
  individuals with detected epitope-specific CD8^+ T cells: 50% and 87.5%

## KYVLFHTSL (Influenza B virus) [PA457-465]
[13]
  CD8+ T cell responses (IFNγ) after single peptide re-stimulation: immunogenic response

## SFSFGGFTF (Influenza A virus) [PB2322-330]
[15]
  in vivo CD8^+ T cell responses: targeted

## SYINRTGTFEF (Influenza A virus) [PB1482-492]
[15]
  in vivo CD8^+ T cell responses: targeted

## IYHPGGNKL (Influenza B virus) [PB2245-253]
[14]
  immunogenicity (induction of IFNγ production in CD8+ T cells after peptide re-stimulation): immunogenic
